{
  "source": "ChEMBL document CHEMBL3351867",
  "about": "“Sequence-specific DNA alkylation and transcriptional inhibition by long-chain hairpin pyrrole-imidazole polyamide-chlorambucil conjugates targeting CAG/CTG trinucleotide repeats” (Bioorg Med Chem, 2014)",
  "key": {"[1]": {"experiment": "Binding affinity to biotinylated (5'-AGCAGCAGCA-3'/5'-TGCTGCTGCT-3') hairpin DNA (unknown origin) by SPR assay"}, "[2]": {"experiment": "Induction of DNA alkylation of 5'-Texas Red-labeled 214 bp DNA fragments with (CAG)12 repeat sequence (unknown origin) at 2.5 to 20 nM after 18 hrs by high resolution gel electrophoresis"}, "[3]": {"experiment": "Induction of DNA alkylation of 5'-Texas Red-labeled 214 bp DNA fragments with (CTG)12 repeat sequence (unknown origin) at 2.5 to 20 nM after 18 hrs by high resolution gel electrophoresis"}, "[4]": {"experiment": "Induction of DNA alkylation of 5'-Texas Red-labeled 214 bp DNA fragments with (5'-(CAG)12CAA-3' repeat sequence (unknown origin) at 2.5 to 20 nM after 18 hrs by high resolution gel electrophoresis"}, "[5]": {"experiment": "Induction of DNA alkylation of 5'-Texas Red-labeled 214 bp DNA fragments with (5'-TTG(CTG)12-3' repeat sequence (unknown origin) at 2.5 to 20 nM after 18 hrs by high resolution gel electrophoresis"}, "[6]": {"experiment": "Binding affinity to biotinylated (5'-AGCAGCAGCA-3'/5'-TGCTGCTGCT-3') hairpin DNA (unknown origin) assessed as […] of compound from 1:1 compound and DNA complex by SPR assay"}, "[7]": {"experiment": "Binding affinity to biotinylated (5'-AGCAGCAGCA-3'/5'-TGCTGCTGCT-3') hairpin DNA (unknown origin) assessed as […] of compound from 2:1 compound and DNA complex by SPR assay"}, "[8]": {"experiment": "Induction of DNA alkylation of DNA fragments with (CAG)12 repeat sequence (unknown origin) assessed as inhibition of T7 RNA polymerase-mediated transcription using T7 promoter primer and sp6 promoter primer at 10 to 30 nM after 18 hrs by […] staining based high resolution gel electrophoresis"}, "[9]": {"experiment": "Induction of DNA alkylation of DNA fragments with (CTG)12 repeat sequence (unknown origin) assessed as inhibition of T7 RNA polymerase-mediated transcription using T7 promoter primer and sp6 promoter primer at 10 to 30 nM after 18 hrs by […] staining based high resolution gel electrophoresis"}, "[10]": {"experiment": "Induction of DNA alkylation of 5'-Texas Red-labeled 214 bp DNA fragments with (CAG)12 repeat sequence (unknown origin) at 150 nmol after 18 hrs by high resolution gel electrophoresis"}},
  "note": "Activity calls are given as the source filed them. No cut-off for these calls is given here.",
  "data": [
    {"compound": "CC(=O)Nc1cn(C)c(C(=O)Nc2cc(C(=O)NCCC(=O)Nc3cn(C)c(C(=O)Nc4cc(C(=O)NCCCC(=O)Nc5cn(C)c(C(=O)Nc6cc(C(=O)NCCC(=O)Nc7cn(C)c(C(=O)Nc8cc(C(=O)NCCC(=O)NCCCN(C)CCCN)n(C)c8)n7)n(C)c6)n5)n(C)c4)n3)n(C)c2)n1", "values": [
      {"measurement": "Kd", "setting": "[1]", "result": 14, "unit": "nM"}
    ]},
    {"compound": "CC(=O)Nc1cn(C)c(C(=O)Nc2cc(C(=O)NCCC(=O)Nc3cn(C)c(C(=O)Nc4cc(C(=O)NCCC(=O)Nc5cn(C)c(C(=O)Nc6cc(C(=O)NCCCC(=O)Nc7cn(C)c(C(=O)Nc8cc(C(=O)NCCC(=O)Nc9cn(C)c(C(=O)Nc%10cc(C(=O)NCCC(=O)Nc%11cn(C)c(C(=O)Nc%12cc(C(=O)NCCC(=O)NCCCN(C)CCCNC(=O)CCCc%13ccc(N(CCCl)CCCl)cc%13)n(C)c%12)n%11)n(C)c%10)n9)n(C)c8)n7)n(C)c6)n5)n(C)c4)n3)n(C)c2)n1", "values": [
      {"measurement": "Activity", "setting": "[2]", "result": "Active"},
      {"measurement": "Activity", "setting": "[3]", "result": "Active"},
      {"measurement": "Activity", "setting": "[4]", "result": "Active"},
      {"measurement": "Activity", "setting": "[5]", "result": "Active"}
    ]},
    {"compound": "CC(=O)Nc1cn(C)c(C(=O)Nc2cc(C(=O)NCCC(=O)Nc3cn(C)c(C(=O)Nc4cc(C(=O)NCCC(=O)Nc5cn(C)c(C(=O)Nc6cc(C(=O)NCCCC(=O)Nc7cn(C)c(C(=O)Nc8cc(C(=O)NCCC(=O)Nc9cn(C)c(C(=O)Nc%10cc(C(=O)NCCC(=O)Nc%11cn(C)c(C(=O)Nc%12cc(C(=O)NCCC(=O)NCCCN(C)CCCN)n(C)c%12)n%11)n(C)c%10)n9)n(C)c8)n7)n(C)c6)n5)n(C)c4)n3)n(C)c2)n1", "values": [
      {"measurement": "Kd", "setting": "[1]", "result": 53, "unit": "nM"}
    ]},
    {"compound": "CC(=O)Nc1cn(C)c(C(=O)Nc2cc(C(=O)NCCC(=O)Nc3cn(C)c(C(=O)Nc4cc(C(=O)NCCC(=O)NCCCN(C)CCCN)n(C)c4)n3)n(C)c2)n1", "values": [
      {"measurement": "Kd", "setting": "[6]", "result": 610, "unit": "nM"},
      {"measurement": "Kd", "setting": "[7]", "result": 13, "unit": "nM"}
    ]},
    {"compound": "CC(=O)Nc1cn(C)c(C(=O)Nc2cc(C(=O)NCCC(=O)Nc3cn(C)c(C(=O)Nc4cc(C(=O)NCCC(=O)Nc5cn(C)c(C(=O)Nc6cc(C(=O)NCC[C@@H](N)C(=O)Nc7cn(C)c(C(=O)Nc8cc(C(=O)NCCC(=O)Nc9cn(C)c(C(=O)Nc%10cc(C(=O)NCCC(=O)Nc%11cn(C)c(C(=O)Nc%12cc(C(=O)NCCC(=O)NCCCN(C)CCCN)n(C)c%12)n%11)n(C)c%10)n9)n(C)c8)n7)n(C)c6)n5)n(C)c4)n3)n(C)c2)n1", "values": [
      {"measurement": "Activity", "setting": "[8]", "result": "inactive"},
      {"measurement": "Activity", "setting": "[9]", "result": "inactive"},
      {"measurement": "Kd", "setting": "[1]", "result": 11, "unit": "nM"}
    ]},
    {"compound": "CC(=O)Nc1cn(C)c(C(=O)Nc2cc(C(=O)NCCC(=O)Nc3cn(C)c(C(=O)Nc4cc(C(=O)NCCCC(=O)Nc5cn(C)c(C(=O)Nc6cc(C(=O)NCCC(=O)Nc7cn(C)c(C(=O)Nc8cc(C(=O)NCCC(=O)NCCCN(C)CCCNC(=O)CCCc9ccc(N(CCCl)CCCl)cc9)n(C)c8)n7)n(C)c6)n5)n(C)c4)n3)n(C)c2)n1", "values": [
      {"measurement": "Activity", "setting": "[2]", "result": "inactive"},
      {"measurement": "Activity", "setting": "[10]", "result": "Active"},
      {"measurement": "Activity", "setting": "[3]", "result": "Active"}
    ]},
    {"compound": "CC(=O)Nc1cn(C)c(C(=O)Nc2cc(C(=O)NCCC(=O)Nc3cn(C)c(C(=O)Nc4cc(C(=O)NCCC(=O)NCCCN(C)CCCNC(=O)CCCc5ccc(N(CCCl)CCCl)cc5)n(C)c4)n3)n(C)c2)n1", "values": [
      {"measurement": "Activity", "setting": "[2]", "result": "inactive"},
      {"measurement": "Activity", "setting": "[3]", "result": "inactive"}
    ]},
    {"compound": "CC(=O)Nc1cn(C)c(C(=O)Nc2cc(C(=O)NCCC(=O)Nc3cn(C)c(C(=O)Nc4cc(C(=O)NCCC(=O)Nc5cn(C)c(C(=O)Nc6cc(C(=O)NCC[C@@H](N)C(=O)Nc7cn(C)c(C(=O)Nc8cc(C(=O)NCCC(=O)Nc9cn(C)c(C(=O)Nc%10cc(C(=O)NCCC(=O)Nc%11cn(C)c(C(=O)Nc%12cc(C(=O)NCCC(=O)NCCCN(C)CCCNC(=O)CCCc%13ccc(N(CCCl)CCCl)cc%13)n(C)c%12)n%11)n(C)c%10)n9)n(C)c8)n7)n(C)c6)n5)n(C)c4)n3)n(C)c2)n1", "values": [
      {"measurement": "Activity", "setting": "[4]", "result": "Active"},
      {"measurement": "Activity", "setting": "[5]", "result": "Active"},
      {"measurement": "Activity", "setting": "[8]", "result": "Dose-dependent effect"},
      {"measurement": "Activity", "setting": "[9]", "result": "Dose-dependent effect"}
    ]}
  ]
}
